{"source": "patent US10178867B2", "about": "“Treating microbe contamination in water with THP salts and polymeric biopenetrants” (priority 2004, dated 2019)", "key": {"[1]": {"system": "SRB", "assay": "Biofilm test, seawater (SMOW), SRB", "type": "cell-based, sulphate reducing bacteria", "conditions": "after 75 ppm ai THPS dosed for 3 hours", "from_the_text": "(§1) Biofilm Tests: Seawater (SMOW)"}, "[2]": {"system": "GHB", "assay": "Quantitative suspension test in de inking water, GHB", "type": "cell-based, general heterotrophic bacteria", "conditions": "75 ppm ai THPS, 3 hour contact", "from_the_text": "(§2) Quantitative Suspension Test in De Inking Water"}, "[3]": {"system": "GHB", "assay": "Biofilm test, seawater (SMOW), GHB", "type": "cell-based, general heterotrophic bacteria", "conditions": "after 75 ppm ai THPS dosed for 3 hours", "from_the_text": "as §1"}, "[4]": {"system": "SRB", "assay": "Quantitative suspension test in de inking water, SRB", "type": "cell-based, sulphate reducing bacteria", "conditions": "75 ppm ai THPS, 3 hour contact", "from_the_text": "as §2"}, "[5]": {"system": "General Heterotrophic Bacteria", "assay": "Quantitative suspension test (planktonic bacteria) in WHO water", "type": "cell-based", "conditions": "50 ppm ai THPS", "from_the_text": "Quantitative Suspension Test (Planktonic Bacteria) in WHO Water"}, "[6]": {"system": "GHB", "assay": "Biofilm (sessile) test, freshwater (WHO)", "type": "cell-based, general heterotrophic bacteria", "conditions": "after 75 ppm ai THPS dosed for 3 hours", "from_the_text": "Biofilm (Sessile) Tests: Freshwater (WHO)"}}, "data": [{"substance": "tetrakis(hydroxymethyl)phosphonium sulphate [Unformulated THPS]", "values": [{"measurement": "Viable bacteria, SRB", "setting": "[1]", "result": "1 × 10^4"}, {"measurement": "Log reduction values, GHB", "setting": "[2]", "result": 3.8}, {"measurement": "Viable bacteria, GHB", "setting": "[3]", "result": "1 × 10^2"}, {"measurement": "Log reduction values, SRB", "setting": "[4]", "result": 3}, {"measurement": "Log Reduction of General Heterotrophic Bacteria", "setting": "[5]; 1 hour contact", "result": 1}, {"measurement": "Log Reduction of General Heterotrophic Bacteria", "setting": "[5]; 3 hour contact", "result": 5.8}, {"measurement": "Viable bacteria, GHB", "setting": "[6]", "result": "1 × 10^5"}]}]}
